According to patent US20220274997A1, “PIM KINASE INHIBITOR COMPOSITIONS AND USES THEREOF” (Snap Bio, Inc., priority 2019, published 2022):
pEC50, pIC50: −log10 of the molar value. “And” between values parts separate entries of the source, which are not always exact repeats. Equal entries are not always repeated.

Experiments:
DU-145 = test: CellTiter-Glo cancer cell growth inhibition, DU-145; format: cell-based; conditions: Homo sapiens, DU-145, 72 h
Source text: The CellTiter-Glo® Luminescent Cell Viability Assay is a sensitive homogeneous method to determine the number of viable cells in culture, Detection is based on using the luciferase reaction to measure the amount of ATP from viable cells. The amount of ATP in cells correlates with cell viability. Within minutes after a loss of membrane integrity, cells lose the ability to synthesize ATP, and endogenous ATPases destroy any remaining ATP; thus the levels of ATP fall precipitously. The CellTiter-Glo® Reagent does three things upon addition to cells. It lyses cell membranes to release ATP; it inhibits endogenous ATPases, and it provides luciferin, luciferase and other reagents necessary to measure ATP using a bioluminescent reaction. The unique properties of a proprietary stable luciferase. There is a linear relationship (r2=0.99) between the luminescent signal and the number of cells from 0 to 50.000 cells per well.
All assays were performed by Reaction Biology Corporation (Malvern, Pa.) or ChemDiv, Inc. (San Diego, Calif.). […]
Conditions: 37° C., air 95%; HEPA-filtered carbon dioxide (CO2) 5%, humidified atmosphere. • Cells were grown in 175 cm^2 flasks to 80-90% of confluency. • Culture media was aspirated and cell layer was briefly rinsed with Versen solution to remove all traces of serum. • 2 mL of accutase was added to cells. • Flasks were retuned to incubator for 5 min to allow cell detachment. • Add 6.0 mL of complete growth medium. • Single cell suspension was created by gently pipetting. • Cells were counted using a Hematocytometer and a suspension with the desired cell concentration was prepared. […]
Stock solutions ([…]) were diluted with cell culture media to produce 500× serial dilutions and […] of final compound dilutions were added to cells in assay plates to screen a series of 10 doses starting at 100 mM. […] Luminescence intensity was measured for each well using the Tecan M 1000 microplate reader after 5 min of incubation with CellTiter-Glo Reagent. The number of viable cells in culture was determined based on quantitation of the ATP present in each culture well. […]

PIM2 = target: T1, PIM2 (Homo sapiens, UniProt Q9P1W9); test: Biochemical radiolabeled ATP kinase assay (Reaction Biology), PIM2; conditions: 10 μM ATP
T1 construct: purchased ProQinase, Freiburg, Germany 0223-0000-1
Source text: Two different assays for measuring kinase inhibitor activity were employed for messing the effectiveness of compounds of the present disclosure for inhibiting PIM kinases. […] The second assay used was Perkin Elmer's LANCE® Ultra kinase assay which uses a ULight™-labeled peptide substrate and an appropriate Europium-labeled anti-phospho antibody. When the substrate becomes phosphorylated by a kinase of interest, the phosphorylated site on the substrate is recognized by the Europium-labeled anti-phospho antibody. […]
The standard protocol used for PIM3 was performed by Reaction Biology Corporation (Malvern, Pa.) using a capture assay performed in 20 mM HEPES at pH 7.5 containing 10 mM MgCl2, 10 mM MnCl2, 1 mM EGTA, 0.02% Brij35, 0.02 mg/mL BSA, 0.1 mM Na3VO4, 2 mM DTT, 0.02% Brij35, 10 μM ATP, and 20 μM peptide substrate […]. […] The bound ^33P-peptide substrate was quantified by scintillation counting and the disintegrations per minute (dpm) obtained, being directly proportional to the amount of ^33P-peptide produced by PIM3, were used to determine the IC50 for each compound. […]
The inhibitory activity of each compound against PIM kinases was measured with the radioisotope filter binding assay, a type of substrate phosphorylation assays, available at Reaction Biology Corporation (Mavern, Pa.). […]

T1 sequence (Q9P1W9 whole entry): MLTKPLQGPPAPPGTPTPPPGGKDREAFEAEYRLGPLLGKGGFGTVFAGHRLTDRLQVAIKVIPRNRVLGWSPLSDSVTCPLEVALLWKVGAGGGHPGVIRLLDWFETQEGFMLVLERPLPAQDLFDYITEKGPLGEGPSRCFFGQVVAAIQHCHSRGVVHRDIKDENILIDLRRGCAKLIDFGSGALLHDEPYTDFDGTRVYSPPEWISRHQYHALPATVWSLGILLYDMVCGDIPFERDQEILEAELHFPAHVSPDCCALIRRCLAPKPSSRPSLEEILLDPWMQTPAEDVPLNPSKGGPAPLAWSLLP

O=C1NC(=O)c2c1c1c3ccccc3[nH]c1c1c2c2cc(F)c(O)cc2n1CCN1CCOCC1 [Compound 19, 3-fluoro-2-hydroxy-13-(2-morpholin-4-ylethyl)-12,13-dihydro-5H-indolo[2,3-a]pyrrolo[3,4-c]carbazole-5,7(6H)-dione]
pEC50 (DU-145): 7.40
pIC50 (PIM2): 8.17

O=C1NC(=O)c2c1c1c3cc(F)c(O)cc3[nH]c1c1c2c2ccccc2n1CCN1CCOCC1 [Compound 18, 3-fluoro-2-hydroxy-12-(2-morpholin-4-ylethyl)-12,13-dihydro-5H-indolo[2,3-a]pyrrolo[3,4-c]carbazole-5,7(6H)-dione]
pEC50 (DU-145): 7.39
pIC50 (PIM2): 8.15 and 8.13
